Experimental data: patent US11124500B2, “Disubstituted pyrazole compounds” (Eli Lilly and Company, priority 2019, dated 2021)

Columns and labels:
[1] = target: human KHK-C (Homo sapiens (Human), UniProt P50053); assay: KHK enzyme activity assay, human KHK-C (F1P production, RapidFire MS); format: biochemical; details: fructose 250 μM, ATP 150 μM; average ± SEM; read-out: hKHK-C IC50
Method: (§1) KHK Enzyme Activity Assay for Human KHK-C and Human KHK-A
(§2) The intrinsic potency for inhibition of KHK C or A activity may be measured using an enzymatic assay which measures the production of FIP. Compounds are prepared in DMSO and tested in a 10-point concentration curve, to create 3-fold serial dilutions of the compounds in a 96-well plate ranging from 20 μM to 1.02 nM. Enzyme is prepared in assay buffer [50 mM 4-(2-hydroxyethyl)piperazine-1-ethanesulfonic acid (HEPES), 10 mM potassium chloride, 100 mM magnesium chloride, 2 mM tris(2-carboxyethyl)phosphine (TCEP), 0.01% n-octyl glucoside] and incubated with compounds at RT for 15 min. The reaction is carried out in 100 μL volumes containing substrate concentrations of fructose (250 μM for KHK-C assay and 1.25 mM for KHK-A assay) and ATP (150 μM for both isoforms); which are further incubated at RT for 20 min. The reaction is then halted by the addition of stop buffer; consisting of 0.2% formic acid and 1 μg/ml ^13C6-fructose-6-phosphate (^13C6-F6P) internal standard. Plates are stored in −20° C. until RapidFire MS analysis.
(§3) RapidFire MS Analysis for Quantitation of F1P
(§4) An Agilent 300 RapidFire automated extraction system (Agilent, Santa Clara, Calif.) with three HPLC quaternary pumps is coupled to an Agilent 6495 triple quadrupole mass spectrometer (Agilent Technologies, Santa Clara, Calif.) equipped with an electrospray ionization (ESI) interface source. The RapidFire Mass Spec system is equipped with a reusable RapidFire C18 (type C) solid-phase extraction (SPE) cartridge (G9205 Å).
(§5) Solvent A, used for sample loading and washing, is 6 mM octylamine (Acros Organics 129495000) brought to pH 5.0 using acetic acid. Solvent B, used for sample elution, is 20% water in ACN containing 0.1% formic acid. Samples are sequentially analyzed by aspirating 10 μL onto the collection loop under vacuum directly from multiwell plates. The 10 μL of sample is loaded onto the C18 cartridge and washed using solvent A at a flow rate of 1.25 mL/min for 5000 ms. The retained analytes are then eluted to the mass spectrometer using solvent B at a flow rate of 1.25 mL/min for 5000 ms. The system is re-equilibrated using solvent at flow rate of 1.25 mL/min for 2000 ms.
(§6) The triple quadrupole mass spectrometer is equipped with an ESI source and analytes are monitored using selected reaction monitoring (SRM) in negative mode [M−H]−. F1P is monitored at m/z 259.02/96.9 and ^13C6-fructose-6-phosphate is monitored at m/z 264.99/97. The area ratio values for F1P is calculated using ^13C6-fructose-6-phospate as internal standard.

[2] = target: human KHK-A (Homo sapiens (Human), UniProt P50053); assay: KHK enzyme activity assay, human KHK-A (F1P production, RapidFire MS); format: biochemical; details: fructose 1.25 mM, ATP 150 μM; average ± SEM; read-out: hKHK-A IC50
Chain of human KHK-A (P50053 other isoform, or with tags, fused parts or gaps): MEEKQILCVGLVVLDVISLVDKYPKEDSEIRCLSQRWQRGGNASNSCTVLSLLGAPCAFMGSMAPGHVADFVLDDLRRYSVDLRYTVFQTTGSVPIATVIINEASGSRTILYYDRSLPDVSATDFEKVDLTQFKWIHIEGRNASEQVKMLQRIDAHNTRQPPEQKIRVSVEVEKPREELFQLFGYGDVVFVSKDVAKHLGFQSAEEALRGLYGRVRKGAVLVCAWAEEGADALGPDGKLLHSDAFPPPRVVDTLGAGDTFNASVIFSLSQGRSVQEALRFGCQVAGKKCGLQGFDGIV
Method: as §1, §2, §3, §4, §5, §6

Chain of human KHK-C (P50053 whole entry): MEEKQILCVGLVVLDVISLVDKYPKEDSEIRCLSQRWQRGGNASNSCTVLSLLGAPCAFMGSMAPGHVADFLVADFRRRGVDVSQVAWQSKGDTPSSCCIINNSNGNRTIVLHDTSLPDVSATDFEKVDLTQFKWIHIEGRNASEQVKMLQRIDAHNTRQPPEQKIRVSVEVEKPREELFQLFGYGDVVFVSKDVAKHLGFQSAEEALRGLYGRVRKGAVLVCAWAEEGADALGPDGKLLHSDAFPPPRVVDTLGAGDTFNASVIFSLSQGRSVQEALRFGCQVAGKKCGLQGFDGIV

IC50 [1] [nM] | IC50 [2] [nM] | SMILES
15.5 ± 20.4 | 7.69 ± 7.97 | C[C@H]1CCN1c1nc(-c2cnn(C3CCNCC3)c2)cc(C(F)(F)F)n1 [Example 13, 2-[(2S)-2-Methylazetidin-1-yl]-4-[1-(4-piperidyl)pyrazol-4-yl]-6-(trifluoromethyl)pyrimidine]
55.2 ± 28.1 | 39.2 ± 13.6 | C[C@H]1CCN1c1nc(-c2cnn(CC(=O)N(CCO)CCO)c2)cc(C(F)(F)F)c1C#N [Example 21, 2-[4-[5-Cyano-6-[(2S)-2-methylazetidin-1-yl]-4-(trifluoromethyl)-2-pyridyl]pyrazol-1-yl]-N,N-bis(2-hydroxyethyl)acetamide]
418 ± 503 | 246 ± 248 | C[C@H]1CCN1c1nc(-c2cnn(CCN(C)C)c2)cc(C(F)(F)F)c1C#N [Example 10, 6-[1-[2-(Dimethylamino)ethyl]pyrazol-4-yl]-2-[(2S)-2-methylazetidin-1-yl]-4-(trifluoromethyl)pyridine-3-carbonitrile]
68 | 51 | C[C@H]1CCN1c1nc(-c2cnn(CC(=O)NCCN)c2)cc(C(F)(F)F)n1 [Example 28, N-(2-Aminoethyl)-2-[4-[2-[(2S)-2-methylazetidin-1-yl]-6-(trifluoromethyl)pyrimidin-4-yl]pyrazol-1-yl]acetamide]
6.26 | 3.58 | C[C@H]1CCN1c1nc(-c2cnn(C3CCN(CCO)CC3)c2)cc(C(F)(F)F)c1C#N [Example 9, 6-[1-[1-(2-Hydroxyethyl)-4-piperidyl]pyrazol-4-yl]-2-[(2S)-2-methylazetidin-1-yl]-4-(trifluoromethyl)pyridine-3-carbonitrile]
10 | 3.98 | CN1CC(n2cc(-c3cc(C(F)(F)F)nc(N4CC[C@@H]4CO)n3)cn2)C1 [Example 36, [(2R)-1-[4-[1-(1-Methylazetidin-3-yl)pyrazol-4-yl]-6-(trifluoromethyl)pyrimidin-2-yl]azetidin-2-yl]methanol]
46.3 | 57.8 | C[C@H]1CNCCN1C(=O)Cn1cc(-c2cc(C(F)(F)F)nc(N3CC[C@@H]3C)n2)cn1 [Example 30, 2-[4-[2-[(2S)-2-Methylazetidin-1-yl]-6-(trifluoromethyl)pyrimidin-4-yl]pyrazol-1-yl]-1-[(2S)-2-methylpiperazin-1-yl]ethanone]
34.7 | 70.5 | C[C@H]1CCN1c1nc(-c2cnn(CC(=O)N3CCNC(C)(C)C3)c2)cc(C(F)(F)F)n1 [Example 31, 1-(3,3-Dimethylpiperazin-1-yl)-2-[4-[2-[(2S)-2-methylazetidin-1-yl]-6-(trifluoromethyl)pyrimidin-4-yl]pyrazol-1-yl]ethanone]
61.3 ± 57.5 | 33.7 ± 17.8 | C[C@H]1CCN1c1nc(-c2cnn(CC(=O)N3C[C@@H](O)[C@H](O)C3)c2)cc(C(F)(F)F)c1C#N [Example 22, 6-[1-[2-[(3R,4R)-3,4-Dihydroxypyrrolidin-1-yl]-2-oxo-ethyl]pyrazol-4-yl]-2-[(2S)-2-methylazetidin-1-yl]-4-(trifluoromethyl)pyridine-3-carbonitrile]
28 ± 17.3 | 30 ± 5.09 | OC[C@H]1CCN1c1nc(-c2cnn([C@@H]3CCNC3)c2)cc(C(F)(F)F)n1 [Example 16, [(2R)-1-[4-[1-[(3R)-Pyrrolidin-3-yl]pyrazol-4-yl]-6-(trifluoromethyl)pyrimidin-2-yl]azetidin-2-yl]methanol]
59.2 ± 67.8 | 35.6 ± 32.4 | C[C@H]1CCN1c1nc(-c2cnn(C3CCN(C(=O)CN)CC3)c2)cc(C(F)(F)F)c1C#N [Example 18, 6-[1-[1-(2-Aminoacetyl)-4-piperidyl]pyrazol-4-yl]-2-[(2S)-2-methylazetidin-1-yl]-4-(trifluoromethyl)pyridine-3-carbonitrile]
3.87 ± 0.391 | 3.65 ± 0.817 | C[C@H]1CCN1c1nc(-c2cnn(C3CCNCC3)c2)cc(C(F)(F)F)c1C#N [Example 12, 2-[(2S)-2-Methylazetidin-1-yl]-6-[1-(4-piperidyl)pyrazol-4-yl]-4-(trifluoromethyl)pyridine-3-carbonitrile]
4.9 ± 1.31 | 3.63 ± 1.13 | C[C@H]1CCN1c1nc(-c2cnn(C3CNC3)c2)cc(C(F)(F)F)n1 [Example 33, 4-[1-(Azetidin-3-yl)pyrazol-4-yl]-2-[(2S)-2-methylazetidin-1-yl]-6-(trifluoromethyl)pyrimidine]
15.9 ± 4.37 | 19.1 ± 2.98 | C[C@H]1[C@H](O)CN1c1nc(-c2cnn([C@@H]3CCNC3)c2)cc(C(F)(F)F)n1 [Example 14, (2S,3R)-2-Methyl-1-[4-[1-[(3R)-pyrrolidin-3-yl]pyrazol-4-yl]-6-(trifluoromethyl)pyrimidin-2-yl]azetidin-3-ol]
14.4 ± 1.12 | 11.4 ± 4.34 | C[C@H]1[C@H](O)CN1c1nc(-c2cnn(C3CNC3)c2)cc(C(F)(F)F)n1 [Example 4, (2S,3R)-1-[4-[1-(Azetidin-3-yl)pyrazol-4-yl]-6-(trifluoromethyl)pyrimidin-2-yl]-2-methyl-azetidin-3-ol]
13.6 ± 7.2 | 16.9 ± 9.7 | C[C@H]1CCN1c1nc(-c2cn[nH]c2)cc(C(F)(F)F)c1C#N [Example 25, 2-[(2S)-2-Methylazetidin-1-yl]-6-(1H-pyrazol-4-yl)-4-(trifluoromethyl)pyridine-3-carbonitrile]
27.2 ± 8.6 | 26.7 ± 3.66 | C[C@H]1[C@H](O)CN1c1nc(-c2cnn([C@H]3CCNC3)c2)cc(C(F)(F)F)n1 [Example 15, (2S,3R)-2-Methyl-1-[4-[1-[(3S)-pyrrolidin-3-yl]pyrazol-4-yl]-6-(trifluoromethyl)pyrimidin-2-yl]azetidin-3-ol]
56.1 ± 62.5 | 25.2 ± 15.7 | C[C@H]1CCN1c1nc(-c2cnn(C3CCN(C)CC3)c2)cc(C(F)(F)F)c1C#N [Example 8, 2-[(2S)-2-Methylazetidin-1-yl]-6-[1-(1-methyl-4-piperidyl)pyrazol-4-yl]-4-(trifluoromethyl)pyridine-3-carbonitrile]
4.89 | 6.75 | C[C@H]1CCN1c1nc(-c2cnn(CC(O)CO)c2)cc(C(F)(F)F)c1C#N (single isomer, unassigned; isomer 2) [Example 24b]
2.63 | 1.59 | C[C@H]1[C@H](O)CN1c1nc(-c2cnn(C3CN(C)C3)c2)cc(C(F)(F)F)n1 [Example 35, (2S,3R)-2-Methyl-1-[4-[1-(1-methylazetidin-3-yl)pyrazol-4-yl]-6-(trifluoromethyl)pyrimidin-2-yl]azetidin-3-ol]
150 ± 243 | 81.8 ± 92.6 | C[C@H]1CCN1c1nc(-c2cnn(CC(=O)N3CCN(C)CC3)c2)cc(C(F)(F)F)c1C#N [Example 20, 2-[(2S)-2-Methylazetidin-1-yl]-6-[1-[2-(4-methylpiperazin-1-yl)-2-oxo-ethyl]pyrazol-4-yl]-4-(trifluoromethyl)pyridine-3-carbonitrile]
28.4 | 22.2 | C[C@H]1CCN1c1nc(-c2cnn(C3CCOCC3)c2)cc(C(F)(F)F)c1C#N [Example 26, 2-[(2S)-2-Methylazetidin-1-yl]-6-(1-tetrahydropyran-4-ylpyrazol-4-yl)-4-(trifluoromethyl)pyridine-3-carbonitrile]
6.06 | 9.99 | C[C@H]1CCN1c1nc(-c2cnn(CC(O)CO)c2)cc(C(F)(F)F)c1C#N (single isomer, unassigned; isomer 1) [Example 24a]
